Data published in US20230219904A1 (SYNGENTA CROP PROTECTION AG, priority 2020, published 2023).

Key:
Format in all cases: in vivo
[1] = tested on: Abutilon theophrasti (ABUTH); assay: Pre-emergence herbicidal glasshouse test (Table B1); conditions: evaluated after 13 days
Experimental: (§1) Seeds of a variety of test species are sown in standard soil in pots (Lolium perenne (LOLPE), Amaranthus retoflexus (AMARE), Abutilon theophrasti (ABUTH), Setaria faberi (SETFA), Echinochloa crus-galh (ECHCG), Ipomoea hederacea (IPOHE)). After cultivation for one day (pre-emergence) or after 8 days cultivation (post-emergence) under controlled conditions in a glasshouse (at 24/16° C., day/night; 14 hours light; 65% humidity), the plants are sprayed with an aqueous spray solution derived from the formulation of the technical active ingredient in acetone/water (50:50) solution containing 0.5% Tween 20 (polyoxyethelyene sorbitan monolaurate, CAS RN 9005-64-5). Compounds are applied at 500 g/h unless otherwise indicated. The test plants are then grown in a glasshouse under controlled conditions in a glasshouse (at 24/16° C., day/night; 14 hours light; 65% humidity) and watered twice daily. After 13 days for pre and post-emergence, the test is evaluated for the percentage damage caused to the plant. The biological activities are shown in the following table on a five-point scale (5=80-100%; 4=60-79%; 3=40-59%; 2=20-39%; 1=0-19%).

[2] = tested on: Amaranthus retoflexus (AMARE); assay: as above; conditions: evaluated after 13 days
Experimental: as §1

[3] = tested on: Echinochloa crus-galh (ECHCG); assay: as above; conditions: evaluated after 13 days
Experimental: as §1

[4] = tested on: Ipomoea hederacea (IPOHE); assay: as above; conditions: evaluated after 13 days
Experimental: as §1

[5] = tested on: Setaria faberi (SETFA); assay: as above; conditions: evaluated after 13 days
Experimental: as §1

[6] = tested on: Abutilon theophrasti (ABUTH); assay: Post-emergence herbicidal glasshouse test (Table B1); conditions: applied at 125 g/ha, evaluated after 13 days
Experimental: as §1

[7] = tested on: Amaranthus retoflexus (AMARE); assay: as above; conditions: evaluated after 13 days
Experimental: as §1

[8] = tested on: Ipomoea hederacea (IPOHE); assay: as above; conditions: evaluated after 13 days
Experimental: as §1

[9] = tested on: Setaria faberi (SETFA); assay: as above; conditions: evaluated after 13 days
Experimental: as §1

[10] = tested on: Echinochloa crus-galh (ECHCG); assay: as above; conditions: evaluated after 13 days
Experimental: as §1

Row | Compound | PRE Application ABUTH, percentage damage on five-point scale ([1]; applied at 125 g/ha) | PRE Application AMARE, percentage damage on five-point scale ([2]; applied at 125 g/ha) | PRE Application ECHCG, percentage damage on five-point scale ([3]; applied at 125 g/ha) | PRE Application IPOHE, percentage damage on five-point scale ([4]; applied at 125 g/ha) | PRE Application SETFA, percentage damage on five-point scale ([5]; applied at 125 g/ha) | POST Application ABUTH, percentage damage on five-point scale [6] | POST Application AMARE, percentage damage on five-point scale ([7]; applied at 125 g/ha) | POST Application IPOHE, percentage damage on five-point scale ([8]; applied at 125 g/ha) | POST Application SETFA, percentage damage on five-point scale ([9]; applied at 125 g/ha) | POST Application ECHCG, percentage damage on five-point scale ([10]; applied at 125 g/ha) | PRE Application ABUTH, percentage damage on five-point scale ([1]; applied at 500 g/h) | PRE Application AMARE, percentage damage on five-point scale ([2]; applied at 500 g/h) | PRE Application ECHCG, percentage damage on five-point scale ([3]; applied at 500 g/h) | PRE Application IPOHE, percentage damage on five-point scale ([4]; applied) | PRE Application SETFA, percentage damage on five-point scale ([5]; applied at 500 g/h) | POST Application AMARE, percentage damage on five-point scale ([7]; applied at 500 g/h) | POST Application ECHCG, percentage damage on five-point scale ([10]; applied at 500 g/h) | POST Application IPOHE, percentage damage on five-point scale ([8]; applied at 500 g/h) | POST Application SETFA, percentage damage on five-point scale ([9]; applied at 500 g/h)
1 | Cn1nnnc1NC(=O)c1ccc(OC(F)(F)F)c(NC(=O)C2(F)CC2)c1Cl [Compound 1.054] | 5 (5=80-100%) | 5 (5=80-100%) | 5 (5=80-100%) | 4 (4=60-79%) | 5 (5=80-100%) | 5 (5=80-100%) | 5 (5=80-100%) | 5 (5=80-100%) | 5 (5=80-100%) |  |  |  |  |  |  |  |  |  | 
2 | CCOCC(=O)Nc1c(OC(F)(F)F)ccc(C(=O)Nc2nnnn2CC)c1Cl [Compound 1.074] | 5 (5=80-100%) | 5 (5=80-100%) | 4 (4=60-79%) | 5 (5=80-100%) | 4 (4=60-79%) |  | 5 (5=80-100%) | 5 (5=80-100%) | 5 (5=80-100%) | 5 (5=80-100%) |  |  |  |  |  |  |  |  | 
3 | CCn1nnnc1NC(=O)c1ccc(OC(F)(F)F)c(NC(=O)C2(C)CC2)c1Cl [Compound 1.075] | 5 (5=80-100%) | 5 (5=80-100%) | 5 (5=80-100%) | 5 (5=80-100%) | 5 (5=80-100%) |  | 4 (4=60-79%) | 4 (4=60-79%) | 5 (5=80-100%) | 4 (4=60-79%) |  |  |  |  |  |  |  |  | 
4 | CCC(C)C(=O)Nc1c(OC(F)(F)F)ccc(C(=O)Nc2nnnn2CC)c1Cl (stereo not drawn) [Compound 1.076] | 5 (5=80-100%) | 5 (5=80-100%) | 5 (5=80-100%) | 5 (5=80-100%) | 5 (5=80-100%) |  | 4 (4=60-79%) | 4 (4=60-79%) | 4 (4=60-79%) | 5 (5=80-100%) |  |  |  |  |  |  |  |  | 
5 | CCOCCC(=O)Nc1c(OC(F)(F)F)ccc(C(=O)Nc2nnnn2CC)c1Cl [Compound 1.077] | 5 (5=80-100%) | 5 (5=80-100%) | 5 (5=80-100%) | 5 (5=80-100%) | 3 (3=40-59%) |  | 5 (5=80-100%) | 4 (4=60-79%) | 5 (5=80-100%) | 5 (5=80-100%) |  |  |  |  |  |  |  |  | 
6 | CCC(=O)Nc1c(OC(F)(F)F)ccc(C(=O)Nc2nnnn2C)c1C [Compound 1.078] | 5 (5=80-100%) | 5 (5=80-100%) | 5 (5=80-100%) | 4 (4=60-79%) | 4 (4=60-79%) |  | 5 (5=80-100%) | 4 (4=60-79%) | 5 (5=80-100%) | 5 (5=80-100%) |  |  |  |  |  |  |  |  | 
7 | CCC(=O)Nc1c(OC(F)(F)F)ccc(C(=O)Nc2nnnn2CC)c1C [Compound 1.079] | 5 (5=80-100%) | 5 (5=80-100%) | 5 (5=80-100%) | 4 (4=60-79%) | 4 (4=60-79%) |  | 4 (4=60-79%) | 4 (4=60-79%) | 4 (4=60-79%) | 5 (5=80-100%) |  |  |  |  |  |  |  |  | 
8 | Cn1nnnc1NC(=O)c1ccc(OC(F)F)c(NC(=O)c2ncc(C(F)(F)F)cc2Cl)c1Cl [Compound 1.081] | 5 (5=80-100%) | 5 (5=80-100%) | 1 (1=0-19%) | 1 (1=0-19%) | 1 (1=0-19%) |  | 4 (4=60-79%) | 4 (4=60-79%) | 3 (3=40-59%) | 3 (3=40-59%) |  |  |  |  |  |  |  |  | 
9 | CCC(=O)N(CC)c1c(OC(F)F)ccc(C(=O)Nc2nnnn2C)c1C(F)(F)F [Compound 1.091] | 5 (5=80-100%) | 5 (5=80-100%) | 5 (5=80-100%) | 3 (3=40-59%) | 4 (4=60-79%) |  | 4 (4=60-79%) | 3 (3=40-59%) | 4 (4=60-79%) | 5 (5=80-100%) |  |  |  |  |  |  |  |  | 
10 | CCn1nnnc1NC(=O)c1ccc(OC(F)(F)F)c(NC(=O)c2ncccc2F)c1Cl [Compound 1.094] |  |  |  |  |  |  |  |  |  |  | 1 (1=0-19%) | 5 (5=80-100%) | 1 (1=0-19%) | 1 (1=0-19%) | 1 (1=0-19%) | 5 (5=80-100%) | 5 (5=80-100%) | 5 (5=80-100%) | 5 (5=80-100%)
11 | CCC(=O)N(CC)c1c(OC(F)F)ccc(C(=O)Nc2nnnn2CC)c1Cl [Compound 1.095] | 5 (5=80-100%) | 5 (5=80-100%) | 5 (5=80-100%) | 4 (4=60-79%) | 4 (4=60-79%) |  | 5 (5=80-100%) | 4 (4=60-79%) | 5 (5=80-100%) | 5 (5=80-100%) |  |  |  |  |  |  |  |  | 
12 | CCC(=O)Nc1c(OC(F)F)ccc(C(=O)Nc2nnnn2C)c1C(F)(F)F [Compound 1.096] | 3 (3=40-59%) | 4 (4=60-79%) | 1 (1=0-19%) | 3 (3=40-59%) | 1 (1=0-19%) |  | 4 (4=60-79%) | 3 (3=40-59%) | 3 (3=40-59%) | 4 (4=60-79%) |  |  |  |  |  |  |  |  | 
13 | CCC(=O)N(C)c1c(OC(F)F)ccc(C(=O)Nc2nnnn2CC)c1Cl [Compound 1.097] | 5 (5=80-100%) | 5 (5=80-100%) | 5 (5=80-100%) | 5 (5=80-100%) | 4 (4=60-79%) |  | 4 (4=60-79%) | 4 (4=60-79%) | 5 (5=80-100%) | 4 (4=60-79%) |  |  |  |  |  |  |  |  | 
14 | Cn1nnnc1NC(=O)c1ccc(OC(F)(F)C(F)F)c(NC(=O)C2CC2)c1Cl [Compound 1.110] |  |  |  |  |  |  |  |  |  |  | 3 (3=40-59%) | 5 (5=80-100%) | 5 (5=80-100%) | 1 (1=0-19%) | 5 (5=80-100%) | 5 (5=80-100%) | 5 (5=80-100%) | 5 (5=80-100%) | 5 (5=80-100%)
